Measured values: PubChem BioAssay AID330 (DTP/NCI, 2004)
Inconclusive results and toxic doses are left out. How the source made its calls: active means survival T/C of 150% or more; inactive means T/C below 125% in these data.

System: P388 leukemia ip, CD2F1 mice, survival T/C
Experiment: NCI In Vivo Anticancer Drug Screen. Data for tumor model P388 Leukemia (intraperitoneal) in CD2F1 (CDF1) mice
Conditions: endpoint: median survival time, higher = longer survival
Procedure, shortened: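 Mice carrying the transplanted tumor received test compound or vehicle. Survival was recorded in each group, and the value is the treated-group measurement divided by that of the vehicle-treated control group.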

[1] = dose: 100.0 mg/kg/injection, schedule: Q04DX002 (ip), vehicle: Klucel (hydroxypropylcellulose) (HPC)
[2] = dose: 200.0 mg/kg/injection, schedule: Q04DX002 (ip), vehicle: Klucel (hydroxypropylcellulose) (HPC)
[3] = dose: 400.0 mg/kg/injection, schedule: Q04DX002 (ip), vehicle: Klucel (hydroxypropylcellulose) (HPC)
[4] = dose: 60.0 mg/kg/injection, schedule: Q01DX005 (ip), vehicle: saline with Tween-80
[5] = dose: 120.0 mg/kg/injection, schedule: Q01DX005 (ip), vehicle: saline with Tween-80
[6] = dose: 240.0 mg/kg/injection, schedule: Q01DX005 (ip), vehicle: saline with Tween-80
[7] = dose: 50.0 mg/kg/injection, schedule: Q01DX009 (ip), vehicle: saline with Tween-80
[8] = dose: 100.0 mg/kg/injection, schedule: Q01DX009 (ip), vehicle: saline with Tween-80
[9] = dose: 200.0 mg/kg/injection, schedule: Q01DX009 (ip), vehicle: saline with Tween-80
[10] = dose: 100.0 mg/kg/injection, schedule: Q01DX001 (ip), vehicle: Klucel (hydroxypropylcellulose) (HPC)

Measured: T/C

CCOC1(C2(O)CCCCC2)CC(C)=NO1 (configuration not stated)
inactive: [1] 104 % of control | [2] 98 % of control | [3] 102 % of control

COC1/C=C/OC2(C)Oc3c(C)c(O)c4c(O)c(c5c(nc(-c6ccco6)n5-c5ccccc5)c4c3C2=O)NC(=O)/C(C)=C\C=C\C(C)C(O)C(C)C(O)C(C)C(OC(C)=O)C1C (configuration not stated)
inactive: dose: 25.0 mg/kg/injection, schedule: Q01DX009 (ip), vehicle: Klucel (hydroxypropylcellulose) (HPC) 89 % of control | dose: 50.0 mg/kg/injection, schedule: Q01DX009 (ip), vehicle: Klucel (hydroxypropylcellulose) (HPC) 95 % of control | dose: 100.0 mg/kg/injection, schedule: Q01DX009 (ip), vehicle: Klucel (hydroxypropylcellulose) (HPC) 95 % of control | dose: 200.0 mg/kg/injection, schedule: Q01DX009 (ip), vehicle: Klucel (hydroxypropylcellulose) (HPC) 93 % of control

O=C1OCCN1c1cccc2ccccc12
inactive: [4] 95 % of control | [5] 96 % of control | [6] 93 % of control

CCCCCOC(=O)CC(N)C(=O)OCCCCC (configuration not stated)
inactive: [7] 100 % of control | [8] 100 % of control | [9] 90 % of control

O=C(O)c1nc2ccccc2c(=O)[nH]1
inactive: dose: 25.0 mg/kg/injection, schedule: Q01DX009 (ip), vehicle: saline with Tween-80 95 % of control | [7] 96 % of control | [8] 94 % of control | [9] 93 % of control

Cc1ncc(C(=O)c2cc(Cl)ccc2O)cn1
inactive: dose: 100.0 mg/kg/injection, schedule: Q04DX003 (ip), vehicle: saline 100 % of control | dose: 200.0 mg/kg/injection, schedule: Q04DX003 (ip), vehicle: saline 110 % of control | dose: 400.0 mg/kg/injection, schedule: Q04DX003 (ip), vehicle: saline 100 % of control

CCCCCC1([N+](=O)[O-])CN(C)CC2CCCCN2C1 (configuration not stated)
inactive: dose: 100.0 mg/kg/injection, schedule: Q04DX002 (ip), vehicle: saline 102 % of control | dose: 200.0 mg/kg/injection, schedule: Q04DX002 (ip), vehicle: saline 102 % of control

O=C1CCCC2c3[nH]c4ccccc4c3CCN12 (configuration not stated)
inactive: [1] 97 % of control | [2] 100 % of control | [3] 96 % of control

N#CC(C(=O)C(N)=O)c1ccc(Cl)cc1Cl (configuration not stated)
inactive: [4] 104 % of control | [5] 103 % of control | [6] 100 % of control

CN(C)c1ccc(C(=O)C(=O)c2ccccc2)cc1
inactive: dose: 100.0 mg/kg/injection, schedule: Q04DX003 (ip), vehicle: Klucel (hydroxypropylcellulose) (HPC) 106 % of control | dose: 200.0 mg/kg/injection, schedule: Q04DX003 (ip), vehicle: Klucel (hydroxypropylcellulose) (HPC) 99 % of control | dose: 400.0 mg/kg/injection, schedule: Q04DX003 (ip), vehicle: Klucel (hydroxypropylcellulose) (HPC) 100 % of control

O=c1c(N=Nc2ccccc2)c(O)n(-c2ccccc2Cl)c(=S)n1-c1ccccc1
inactive: dose: 25.0 mg/kg/injection, schedule: Q01DX001 (ip), vehicle: Klucel (hydroxypropylcellulose) (HPC) 97 % of control | dose: 50.0 mg/kg/injection, schedule: Q01DX001 (ip), vehicle: Klucel (hydroxypropylcellulose) (HPC) 104 % of control | [10] 92 % of control

CCN1C(=O)C(=NO)C(=O)N(CC)C1=S.CCN1C(=O)C(=N[O-])C(=O)N(CC)C1=S.CCN1C(=O)C(=N[O-])C(=O)N(CC)C1=S.[Fe+3]
inactive: dose: 100.0 mg/kg/injection, schedule: Q04DX002 (ip), vehicle: saline with Tween-80 94 % of control | dose: 200.0 mg/kg/injection, schedule: Q04DX002 (ip), vehicle: saline with Tween-80 102 % of control

CC1(C)CC(OS(=O)(=O)c2ccccc2)CC(C)(C)N1O
inactive: [10] 97 % of control | dose: 200.0 mg/kg/injection, schedule: Q01DX001 (ip), vehicle: Klucel (hydroxypropylcellulose) (HPC) 97 % of control | dose: 400.0 mg/kg/injection, schedule: Q01DX001 (ip), vehicle: Klucel (hydroxypropylcellulose) (HPC) 97 % of control

CCOC(=O)c1ccc(NC(=NC)c2ccccc2)cc1
inactive: [7] 108 % of control | [8] 105 % of control | [9] 97 % of control
